# Literature values, collected in patent US20030228375A1 (priority 2002, published 2003).
# Like-named read-outs stand apart in the source and are kept apart here.
# How the values were obtained:
# aromatase = molecular target: T1, aromatase (Homo sapiens, UniProt P11511); details: compared with chrysin, AG and ANG
# T1 sequence (P11511 1-503): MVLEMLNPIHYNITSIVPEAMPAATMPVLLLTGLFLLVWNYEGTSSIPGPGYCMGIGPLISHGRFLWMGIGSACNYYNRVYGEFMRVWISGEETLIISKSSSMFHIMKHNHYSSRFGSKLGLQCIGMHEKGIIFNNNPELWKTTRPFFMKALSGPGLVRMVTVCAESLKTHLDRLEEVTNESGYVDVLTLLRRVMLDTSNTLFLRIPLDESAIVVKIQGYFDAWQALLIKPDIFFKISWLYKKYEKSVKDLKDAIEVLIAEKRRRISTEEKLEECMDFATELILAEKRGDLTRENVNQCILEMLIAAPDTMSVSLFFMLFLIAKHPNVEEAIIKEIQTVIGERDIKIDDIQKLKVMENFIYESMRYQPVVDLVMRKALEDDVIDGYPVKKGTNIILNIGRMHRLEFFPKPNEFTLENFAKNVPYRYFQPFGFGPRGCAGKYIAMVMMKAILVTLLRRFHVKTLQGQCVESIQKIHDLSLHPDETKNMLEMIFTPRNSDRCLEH
# healthy young men = details: 300 mg/wk for six weeks; TE shoulders, ND shoulders and chest
# HIV-infected men = details: pharmacological doses
# [1] = tested on: people with panhypopituitarism
# [2] = supplementation
# hypogonadal men = details: for waking erection: Asian group; for sexual interest and activity, spontaneous erection: Caucasian group
# [3] = tested on: prostate and seminal vesicle weights
# [4] = body builders
# [5] = nandrolone use
# patients on dialysis = details: compared with placebo
# [6] = supplementation; remark: listed apart in the source
# [7] = in vivo
compound,measurement,setting,value
C[C@]12CC[C@H]3[C@@H](CC=C4C[C@@H](O)CC[C@@]43C)[C@@H]1CC[C@@H]2O [5-androstenediol],proportion of protein in the body composition,young female rats,increased the proportion of protein
"COc1ccc(-c2coc3cc(O)cc(O)c3c2=O)cc1 [Biochanin A, 5,7-dihydroxy-4′-methoxyisoflavone]",aromatase inhibition,aromatase,"inhibited aromatase, but to a lesser degree"
"CCCCCCCCCC(=O)O[C@H]1CC[C@H]2[C@@H]3CCC4=CC(=O)CC[C@@H]4[C@H]3CC[C@]12C [ND, 19-nor-testosterone decanoate]",body circumferences (of fifteen),healthy young men,significant increases
same,"total weight, lean body mass, body cell mass, muscle size and strength",HIV-infected men,significant gains
"C[C@]12CC[C@H](O)CC1=CC[C@@H]1[C@@H]2CC[C@]2(C)C(=O)CC[C@@H]12 [DHEA, dehydro-epiandrosterone]",plasma testosterone,[1]; 50 mg dose,restored plasma testosterone to levels similar to those observed in young women
same,"plasma estrogens, particularly estradiol",[1]; 50 mg or 200 mg,significant and dose dependent increase
same,plasma testosterone,[1]; 200 mg dose,slightly below the levels observed in normal men
C[C@]12CCC(=O)C=C1CC[C@@H]1[C@@H]2CC[C@]2(C)C(=O)CC[C@@H]12 [4-androstenedione],serum testosterone,[2],elevations in serum testosterone
"C[C@@H]1CC2=CC(=O)CC[C@@H]2[C@H]2CC[C@]3(C)[C@@H](O)CC[C@H]3[C@@H]21 [MENT, 7α-methyl-19-nor-testosterone]",waking erection,hypogonadal men,increased waking erection
same,"sexual interest and activity, spontaneous erection",hypogonadal men,significant increases
same,androgenic potency relative to testosterone,[3],four- to five-times more androgenic than testosterone
same,anabolic potency relative to testosterone,levator ani muscles,ten-times as potent as testosterone
"C[C@]12CC[C@H]3[C@@H](CCC4=CC(=O)CC[C@@H]43)[C@@H]1CC[C@@H]2O [nandrolone, 19-nor-testosterone]",decrease in HDL-cholesterol,[4],25-27%
same,effect on sperm,[5],azoospermia
same,lean body mass,patients on dialysis,increased significantly
same,energy expenditure,young female rats,increased energy expenditure
C[C@]12CC[C@H]3[C@@H](CCC4=CC(=O)CC[C@@]43C)[C@@H]1CC[C@@H]2O [testosterone],proportion of protein in the body composition,young female rats,increased the proportion of protein
"CCCCCCC(=O)O[C@H]1CC[C@H]2[C@@H]3CCC4=CC(=O)CC[C@]4(C)[C@H]3CC[C@]12C [TE, testosterone enanthate]",body circumferences (of fifteen),healthy young men,significant increases
same,waking erection,hypogonadal men,increased waking erection
same,"sexual interest and activity, spontaneous erection",hypogonadal men,significant increases
C[C@]12CC[C@H]3[C@@H](CCC4=C[C@@H](O)CC[C@@]43C)[C@@H]1CC[C@@H]2O [4-androstenediol],urine testosterone concentration relative to 4-androstenedione,[6],10 fold
same,human serum testosterone levels,[7],elevations in human serum testosterone levels
